Columns and labels:
[1] = test system: mip1^G651S and mip1^A692T yeast mutants, Δsml1; assay: Small colony frequency in mip1 strains with or without SML1 deletion (mtDNA stability); assay type: cell-based, Saccharomyces cerevisiae; details: 32 μM
Experimental: Deletion of the SML1 gene encoding the inhibitor of RNRI (ribonucleotide diphosphate reductase, enzyme limiting the synthesis pathway of dNTPs) is known to be a genetic suppressor of the instability of the mtDNA caused by mutations in the MIP1 gene (Wang P J, Chabes A, Casagrande R, Tian X C, Thelander L and Huffaker T C. (1997) Rnr4p a novel ribonucleotide reductase small-subunit protein. Mol Cell Biol, 17, 6114-6121).
The frequency of the small colonies was determined for the mip1^G651S and mip1^A692T strains, whether deleted or not from the SML1 gene and in the presence of 32 μM clofilium tosylate or DMSO.
From pre-cultures in selective medium (SC-TRP, 2% ethanol (v/v)) of mutated mip1 strains, 2.10^5 cells/mL were seeded in 2 mL of rich YPD medium in the presence of 32 μM clofilium tosylate or DMSO, then incubated at 28° C. for 24 hours. The cells were then diluted to have about 200 to 250 cells per dish and were spread on differential synthetic medium (SC-TRP, 0.3% glucose, 2% ethanol). The number of small colonies was calculated after 5 days of incubation at 28° C.

[2] = test system: neuronal cybrids derived from a MELAS patient (m.3243A>G tRNA^Leu mutation); assay: Lactate production of MELAS neuronal cybrids; assay type: cell-based, human; details: 300 nM, 48 hours
Experimental: The increase in the lactate production is the result of a toxicity of the drug used, but also of a mitochondrial dysfunction (energy deficiency) present in MELAS syndrome.
Neuronal cybrid lines carrying the MELAS mutation and the parental control line were grown in sterile culture flasks and incubated at 37° C. with 5% CO2 in a medium composed of DMEM with 1.5 g/L glucose, 2 mM L-glutamine and supplemented with 10% foetal bovine serum as well as uridine (5 μg/ml) and pyruvate (10 μg/mL). The cells were harvested by trypsinisation in exponential phase and were used for subsequent biochemical or molecular mitochondrial analyses.
The MELAS neuronal cybrid line carrying the mutation seemingly in the homoplasmic state (i.e. reaching almost 100% MELAS mutation) and the SHSY-5Y parental control line were used for measurements of enzyme activities. […] These cell pellets were then analysed by spectrophotometry with measurement of the different mitochondrial biochemical activities, particularly the activity of citrate synthase and the activity of complex I of the respiratory chain. […]
The lactate concentration of the culture medium for neuronal cybrid and parental cells was determined by spectrophotometry using an enzymatic kit (Bohringer) on a Hitachi-Roche apparatus (Roche Diagnostics GmbH). […]

[3] = test system: control fibroblasts and fibroblasts from a patient with a mutation on each allele of the POLG gene; assay: Maximum non-toxic concentration on fibroblast cultures (xCELLigence cell index); assay type: cell-based, human; details: 140 h, 2.5-10 μM tested
Experimental: Skin fibroblasts from the control and from the patient were cultured in DMEM Galactose (DMEM free of glucose (Life Technologies) supplemented with 10 mM galactose, 10% foetal bovine serum, 200 U/mL penicillin, 200 U/mL streptomycin). Uridine (50 μg/mL) and sodium pyruvate (2.5 mM) were added to the culture medium to maintain the cells expressing a deficiency of the respiratory chain. The cells were incubated in a controlled atmosphere at 37° C. and 5% CO2.
Cell growth of patient and control fibroblasts was measured continuously for 140 h by use of an xCELLigence apparatus (ACEA Biosciences) in 96-well plates. The background noise of the signal was measured with 50 μL of culture medium per well. 50 μL of medium containing 1350 fibroblasts were then added to each well. The impedance measurement was taken every minute for 9 h and then every 15 minutes until the end of analysis.
Clofilium tosylate was diluted in 0.1% DMSO and used at different concentrations (2.5 μM, 5 μM, 10 μM) in a total volume of 50 μL. Toxic concentrations of clofilium tosylate were determined by adding the drug from the point of cell seeding. For each drug concentration and each control, the analysis was carried out in triplicate on 96-well plates. A mathematical algorithm was used to convert the impedance signal into cell index (CI). […]

[4] = Maximum solubility in yeast culture; assay type: physicochemical; details: 28 °C; in YPD yeast culture; read-out: maximum concentration (maximum solubility)
Experimental: From o/n pre-culture in selective medium (SC-URA, 2% ethanol (v/v)), 50 mL of rich YPD medium (1% Yeast Extract, 0.5% Bacto Peptone, 2% Glucose) were seeded at a DO600 of 0.05/mL. The 50 mL of culture were distributed in a series of ten tubes on the basis of 2 mL of culture/tube, with 4 mL of culture being placed in the last tube. […] From this tube (tube 1), 2 mL of culture were placed into tube 2. Tube 2 contained 4 ml of culture and clofilium tosylate at a concentration of 256 μM. 2 mL of tube 2 were added to tube 3, and so on. Each tube contained the drug at a concentration equal to half that of the previous tube. Two controls were provided—without clofilium tosylate and with DMSO (the volume being the same as that used to dilute the clofilium tosylate). The cultures were incubated at 28° C. with stirring for 24 hours, and the optical density (DO600) was measured.

CCCCCCC[N+](CC)(CC)CCCCc1ccc(Cl)cc1.Cc1ccc(S(=O)(=O)[O-])cc1 [clofilium tosylate]
stability of the mtDNA, clofilium tosylate together with availability of dNTPs (SML1 deletion) [1]: additive effect | production of lactate [2]: without increasing | maximum approved (non-toxic) concentration [3]: 2.5 µM | solubility [4]: 512 µM
